Measurements from ChEMBL document CHEMBL1201862, “PubChem BioAssay data set” (2004).
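Test compounds were applied to cells in 96-well plates for 48 hours at 5 doses. Here, GI50 denotes the concentration required for 50% inhibition of growth.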 The source made the active and inactive calls. Cut-off read from the data, not from the text of the source: active = GI50 up to about 1.1 µM and inactive = higher.

Experiments:
Experiment in all cases: NCI-60 cell line screen, 48 h
[1] = test system: HCC 2998
[2] = test system: SW-620
[3] = test system: NCI-H460
[4] = test system: KM12
[5] = test system: SNB-19
[6] = test system: MDA-N
[7] = test system: SF-295
[8] = test system: Hs-578T
[9] = test system: LOX IMVI
[10] = test system: MOLT-4
[11] = test system: OVCAR-3
[12] = test system: HCT-116
[13] = test system: RXF 393
[14] = test system: IGROV-1
[15] = test system: HCT-15
[16] = test system: NCI/ADR-RES
[17] = test system: MCF7
[18] = test system: SK-OV-3

Structure (SMILES)	GI50 [1]	GI50 [2]	GI50 [3]	GI50 [4]	GI50 [5]	GI50 [6]	GI50 [7]	GI50 [8]	GI50 [9]	GI50 [10]	GI50 [11]	GI50 [12]	GI50 [13]	GI50 [14]	GI50 [15] [µM]	GI50 [16]	GI50 [17]	GI50 [18]
O=c1c2cc([N+](=O)[O-])ccc2[nH]n1Cc1ccccc1Cl	57.9 µM (inactive)	88.9 µM (inactive)	31 µM (inactive)	55.7 µM (inactive)	> 100 µM (inactive)	> 100 µM (inactive)	> 100 µM (inactive)	48.8 µM (inactive)	> 100 µM (inactive)	74 µM (inactive)	> 100 µM (inactive)	55.7 µM (inactive)	35.2 µM (inactive)	80.2 µM (inactive)	> 100	40.6 µM (inactive)		
O=C1/C(=C\c2ccc([N+](=O)[O-])o2)SC2NC(COc3ccc(Cl)cc3)=NN12 (configuration not stated)		2.43 µM (inactive)	19.2 µM (inactive)	13.7 µM (inactive)	16.7 µM (inactive)	3.48 µM (inactive)	19.3 µM (inactive)	24.4 µM (inactive)	2.93 µM (inactive)	3.02 µM (inactive)	6.27 µM (inactive)	3.4 µM (inactive)	17.6 µM (inactive)	3.15 µM (inactive)	2.07	6.4 µM (inactive)	2.12 µM (inactive)	24 µM (inactive)
O=C(O)C[C@@H]1[C@@H](O)[C@@H](O)CN2C(=O)c3ccccc3[C@H]12	> 100 µM (inactive)	> 100 µM (inactive)	> 100 µM (inactive)	> 100 µM (inactive)	> 100 µM (inactive)	> 100 µM (inactive)	> 100 µM (inactive)		> 100 µM (inactive)	> 100 µM (inactive)		> 100 µM (inactive)	> 100 µM (inactive)	> 100 µM (inactive)	> 100	> 100 µM (inactive)	> 100 µM (inactive)	> 100 µM (inactive)
COc1cccc(N2N=C3c4ccccc4-n4c(nc5ccccc54)C3C2N)c1 (configuration not stated)	> 100 µM (inactive)	> 100 µM (inactive)	> 100 µM (inactive)	> 100 µM (inactive)	> 100 µM (inactive)	> 100 µM (inactive)	> 100 µM (inactive)	> 100 µM (inactive)	> 100 µM (inactive)		> 100 µM (inactive)	> 100 µM (inactive)		> 100 µM (inactive)	> 100	> 100 µM (inactive)	79.6 µM (inactive)	
CCOC(=O)NN(C(=O)OCC)c1ccc(/N=N/c2ccc(OC)cc2)n1C	31.3 µM (inactive)			24 µM (inactive)		19.7 µM (inactive)	37.4 µM (inactive)	65.8 µM (inactive)	21.5 µM (inactive)	43.7 µM (inactive)	18.5 µM (inactive)	18.6 µM (inactive)	32.4 µM (inactive)	29 µM (inactive)	12.5	25.9 µM (inactive)	6 µM (inactive)	30.7 µM (inactive)
Cc1cc(C(O)CNC(C)CCn2cnc3c2c(=O)n(C)c(=O)n3C)ccc1O (configuration not stated)		> 100 µM (inactive)	> 100 µM (inactive)	> 100 µM (inactive)	> 100 µM (inactive)		> 100 µM (inactive)	> 100 µM (inactive)	> 100 µM (inactive)	> 100 µM (inactive)	> 100 µM (inactive)	> 100 µM (inactive)	> 100 µM (inactive)	> 100 µM (inactive)	> 100	> 100 µM (inactive)	> 100 µM (inactive)	> 100 µM (inactive)
CC(CCc1ccccc1)NCC(O)n1c(/N=N/N(C)C)nc2c1c(=O)n(C)c(=O)n2C (configuration not stated)		> 100 µM (inactive)	41.1 µM (inactive)	> 100 µM (inactive)	> 100 µM (inactive)	> 100 µM (inactive)	> 100 µM (inactive)	> 100 µM (inactive)	> 100 µM (inactive)	> 100 µM (inactive)	> 100 µM (inactive)	> 100 µM (inactive)	> 100 µM (inactive)	> 100 µM (inactive)	> 100	> 100 µM (inactive)	> 100 µM (inactive)	> 100 µM (inactive)
Cc1c2c(c(C)n1-c1ccccc1)C(=O)N(CCSC(=N)N)C2=O	> 100 µM (inactive)	> 100 µM (inactive)	12.3 µM (inactive)	> 100 µM (inactive)	> 100 µM (inactive)	> 100 µM (inactive)	22.6 µM (inactive)	> 100 µM (inactive)		14.2 µM (inactive)	> 100 µM (inactive)	> 100 µM (inactive)	40.2 µM (inactive)	> 100 µM (inactive)	> 100	59.6 µM (inactive)	32.1 µM (inactive)	> 100 µM (inactive)
CC(C)C1(NC(=O)C2CC3c4cccc5[nH]cc(c45)CC3N(C)C2)OC2(O)C3CCCN3C(=O)C(Cc3ccccc3)N2C1=O (configuration not stated)	19 µM (inactive)	32.3 µM (inactive)	19.2 µM (inactive)	15.2 µM (inactive)	57.7 µM (inactive)	22.3 µM (inactive)	16.7 µM (inactive)	27.6 µM (inactive)	12.1 µM (inactive)	3.81 µM (inactive)	16.2 µM (inactive)	16.9 µM (inactive)		36.4 µM (inactive)	23.6	35.4 µM (inactive)	13.6 µM (inactive)	
CCO/C(=N/S(=O)(=O)C(F)(F)F)N(C(C)C)C(C)C		> 100 µM (inactive)	> 100 µM (inactive)	> 100 µM (inactive)	> 100 µM (inactive)	> 100 µM (inactive)		> 100 µM (inactive)	> 100 µM (inactive)	> 100 µM (inactive)		> 100 µM (inactive)	> 100 µM (inactive)	> 100 µM (inactive)	> 100	> 100 µM (inactive)	> 100 µM (inactive)	
CSc1nc(O)c(C#N)c(-c2ccc(Cl)cc2)n1	> 100 µM (inactive)	> 100 µM (inactive)	> 100 µM (inactive)	> 100 µM (inactive)	77.4 µM (inactive)		> 100 µM (inactive)	64.9 µM (inactive)		> 100 µM (inactive)	> 100 µM (inactive)	72.1 µM (inactive)	66.7 µM (inactive)	> 100 µM (inactive)	> 100	> 100 µM (inactive)	> 100 µM (inactive)	> 100 µM (inactive)
Cc1cc(C)c(O)c(CN2CCN(C(C)C)CCN(C(C)C)CC2)c1	18.8 µM (inactive)	42.8 µM (inactive)	34.7 µM (inactive)	17 µM (inactive)	63.1 µM (inactive)	20.6 µM (inactive)	15.7 µM (inactive)	24.5 µM (inactive)	16.1 µM (inactive)	11.7 µM (inactive)	22.2 µM (inactive)	7.41 µM (inactive)	16 µM (inactive)	2.26 µM (inactive)	46.7	25.9 µM (inactive)	20.8 µM (inactive)	
CN(C)c1nc2oc(-c3ccccc3)c(-c3ccccc3)c2c2nnnn12	> 100 µM (inactive)	> 100 µM (inactive)		> 100 µM (inactive)	> 100 µM (inactive)		> 100 µM (inactive)	> 100 µM (inactive)	> 100 µM (inactive)	> 100 µM (inactive)		> 100 µM (inactive)	> 100 µM (inactive)	> 100 µM (inactive)	> 100	> 100 µM (inactive)	> 100 µM (inactive)	> 100 µM (inactive)
Cc1n[nH]c(C(F)(F)F)c1/N=N/N1CCOCC1	1.53 µM (inactive)	2.32 µM (inactive)	4.27 µM (inactive)	6.37 µM (inactive)	15.2 µM (inactive)		12.6 µM (inactive)	13 µM (inactive)	1.97 µM (inactive)	1.84 µM (inactive)	7.21 µM (inactive)	1.94 µM (inactive)	12.5 µM (inactive)	10.7 µM (inactive)	8.81	6.76 µM (inactive)	3.78 µM (inactive)	16.6 µM (inactive)
Nc1nc(O)c2nc(CNc3ccc(C(=O)NC(CCC(=O)O)C(=O)O)cc3)cnc2n1 (configuration not stated)	> 100 µM (inactive)	> 100 µM (inactive)	> 100 µM (inactive)	> 100 µM (inactive)	> 100 µM (inactive)		> 100 µM (inactive)	> 100 µM (inactive)	> 100 µM (inactive)	> 100 µM (inactive)	> 100 µM (inactive)		> 100 µM (inactive)	> 100 µM (inactive)	> 100	> 100 µM (inactive)	> 100 µM (inactive)	> 10 µM (inactive)
CCn1c(-c2ccccc2)nc2c1C(=O)c1ccccc1C2=O	18.2 µM (inactive)	32.1 µM (inactive)	20 µM (inactive)	22.7 µM (inactive)	32.8 µM (inactive)	18.8 µM (inactive)	30.1 µM (inactive)	27.2 µM (inactive)		14.7 µM (inactive)	5.89 µM (inactive)	21.7 µM (inactive)	15.6 µM (inactive)	19.3 µM (inactive)	17.1	13.3 µM (inactive)	25.5 µM (inactive)	20.6 µM (inactive)
O=C(Nc1nnc(-c2c(Cl)c(Cl)c(Cl)c(Cl)c2-c2nc3cc(C(=O)c4ccccc4)ccc3[nH]2)o1)c1ccccc1		19.9 µM (inactive)		23.2 µM (inactive)	15.2 µM (inactive)	3.19 µM (inactive)	9.46 µM (inactive)		15.1 µM (inactive)	13.7 µM (inactive)	15 µM (inactive)	23.3 µM (inactive)	12.3 µM (inactive)	13.6 µM (inactive)	9.98	14 µM (inactive)	10.9 µM (inactive)	18.9 µM (inactive)
